Measured values taken from patent US20250154127A1, “BICYCLIC HETEROARYL COMPOUNDS AND USES THEREOF” (ETERN BIOPHARMA (SHANGHAI) CO., LTD., priority 2022, published 2025).

What was measured:
[1] = biological target: TEAD1(210-426) binding to YAP(50-100) (Homo sapiens, UniProt P28347); test: TR-FRET Assay for TEAD1(210-426) Binding to YAP(50-100); conditions: His-TEAD 10 nM, YAP-Biotin peptide 50 nM
Outline: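 10 nM His-TEAD1 preincubated 30 min at room temperature with compound (3-fold dilutions, 12 points, 1% DMSO), then 50 nM biotin-YAP peptide added.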

MSTO-211H cells = test: Proliferation Assay (CellTiter-Glo Luminescent Cell Viability Assay); format: cell-based; conditions: Homo sapiens, 96 hours treatment
Outline: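 MSTO-211H cells, 1,500/well in RPMI 1640 with 10% FBS, plated overnight, then treated 96 h with 9-point 3-fold compound series in duplicate (DMSO below 0.5%). Viability by CellTiter-Glo luminescence; inhibition relative to DMSO wells, IC50 by four-parameter fit.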

Chain of TEAD1(210-426) binding to YAP(50-100) (P28347 209-426): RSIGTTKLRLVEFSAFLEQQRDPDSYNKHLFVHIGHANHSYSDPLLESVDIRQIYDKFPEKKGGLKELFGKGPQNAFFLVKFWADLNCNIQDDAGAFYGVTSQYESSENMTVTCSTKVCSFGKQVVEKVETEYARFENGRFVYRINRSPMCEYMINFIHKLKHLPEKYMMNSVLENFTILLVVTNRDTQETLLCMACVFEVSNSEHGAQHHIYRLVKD

Compound | IC50 [1] [nM] | IC50 (MSTO-211H cells) [nM]
COc1ccnc(Cn2ccc(-c3cn(-c4ccc(C(F)(F)F)cc4)c4ncccc34)cc2=O)n1 [Compound 80, 1-((4-methoxypyrimidin-2-yl)methyl)-4-(1-(4-(trifluoromethyl)phenyl)-1 H-pyrrolo[2,3-b]pyridin-3-yl)pyridin-2(1H)-one] | ≤ 100 | ≤ 1000
Nc1ccnc(Cn2ccc(-n3nc(-c4ccc(C(F)(F)F)cc4)c4ncccc43)cc2=O)n1 [Compound 119, 1-((4-aminopyrimidin-2-yl)methyl)-4-(3-(4-(trifluoromethyl)phenyl)-1H-pyrazolo[4,3-b]pyridin-1-yl)pyridin-2(1H)-one] | ≤ 100 | ≤ 1000
CNc1ccnc(Cn2ccc(-c3nc(-c4ccc(C(F)(F)F)cc4)n4ccccc34)cc2=O)n1 [Compound 125, 1-((4-(methylamino)pyrimidin-2-yl)methyl)-4-(3-(4-(trifluoromethyl)phenyl)imidazo[1,5-a]pyridin-1-yl)pyridin-2(1H)-one] | ≤ 100 | ≤ 1000
C[C@@H](c1ccccn1)n1ccc(-c2nn(-c3ccc(C(F)(F)F)nc3)c3cccnc23)cc1=O [Compound 40, (S)-1-(1-(pyridin-2-yl)ethyl)-4-(1-(6-(trifluoromethyl)pyridin-3-yl)-1H-pyrazolo[4,3-b]pyridin-3-yl)pyridin-2(1H)-one] | > 1000 | ≤ 1000
O=c1cc(-c2nn(-c3ccc(C(F)(F)F)cc3)c3c(F)cccc23)ccn1Cc1ccnc(OCCO)n1 [Compound 133, 4-(7-fluoro-1-(4-(trifluoromethyl)phenyl)-1H-indazol-3-yl)-1-((2-(2-hydroxyethoxy)pyrimidin-4-yl)methyl)pyridin-2(1H)-one] | ≤ 100 | ≤ 1000
C[C@@H](c1ccccn1)n1ccc(-c2nn(-c3cccc(C(F)(F)F)c3)c3cccnc23)cc1=O [Compound 6, (S)-1-(1-(pyridin-2-yl)ethyl)-4-(1-(3-(trifluoromethyl)phenyl)-1H-pyrazolo[4,3-b]pyridin-3-yl)pyridin-2(1H)-one] | 100 to 1000 | 1000 to 10000

The next lines start with results.

IC50 [1] [nM] | Compound | IC50 (MSTO-211H cells) [nM]
≤ 100 | Cn1nccc1Cn1ccc(-c2nn(-c3ccc(C(F)(F)F)cc3)c3ccccc23)cc1=O [Compound 37, 1-((1-methyl-1 H-pyrazol-5-yl)methyl)-4-(1-(4-(trifluoromethyl)phenyl)-1H-indazol-3-yl)pyridin-2(1H)-one] | ≤ 1000
≤ 100 | COc1ccc2c(c1)c(-c1ccn([C@@H](C)c3ccccn3)c(=O)c1)nn2-c1ccc(C(F)(F)F)cc1 [Compound 34, (S)-4-(5-methoxy-1-(4-(trifluoromethyl)phenyl)-1H-indazol-3-yl)-1-(1-(pyridin-2-yl)ethyl)pyridin-2(1H)-one] | ≤ 1000
100 to 1000 | Cc1cc(Cn2ccc(-c3nn(-c4ccc(C(F)(F)F)cc4)c4ccccc34)cc2=O)n(C)n1 [Compound 16, 1-((1,3-dimethyl-1H-pyrazol-5-yl)methyl)-4-(1-(4-(trifluoromethyl)phenyl)-1H-indazol-3-yl)pyridin-2(1H)-one] | ≤ 1000
> 1000 | Cn1cncc1Cn1ccc(-c2nn(-c3ccc(C(F)(F)F)cc3)c3ccccc23)cc1=O [Compound 39, 1-((1-methyl-1H-imidazol-5-yl)methyl)-4-(1-(4-(trifluoromethyl)phenyl)-1H-indazol-3-yl)pyridin-2(1H)-one] | ≤ 1000
≤ 100 | O=c1cc(-c2nn(-c3ccc(C(F)(F)F)cc3)c3c(F)cccc23)ccn1Cc1ccnc(Cl)n1 [Compound 157, 1-((2-chloropyrimidin-4-yl)methyl)-4-(7-fluoro-1-(4-(trifluoromethyl)phenyl)-1H-indazol-3-yl)pyridin-2(1H)-one] | ≤ 1000
> 1000 | C[C@@H](c1ccccn1)n1ccc(-c2nn(-c3ccc(C(F)(F)F)cc3)c3cc(C(=O)O)ccc23)cc1=O [Compound 29, (S)-3-(2-oxo-1-(1-(pyridin-2-yl)ethyl)-1,2-dihydropyridin-4-yl)-1-(4-(trifluoromethyl)phenyl)-1H-indazole-6-carboxylic acid] | ≤ 1000
